Results: patent US11883526B2 (priority 2019, dated 2024)

Legend:
[1] = test system: subjects with MDD at imminent risk for suicide; test: Beck Scale for Suicidal Ideation, BSS ([…]2001); type: in vivo, human; conditions: 84 mg; for BSS total score change from baseline, Diff. of LS Means (minus Placebo): ANCOVA LOCF, ITT
Procedure: The BSS is a 21-item self-reported instrument to detect and measure the severity of suicidal ideation in adults and adolescents aged 17 years and older. The BSS total score represents the severity of suicide ideation, and it is calculated by summing the ratings of the first 19 items; the total score ranges from 0 to 38, with a higher score representing greater suicide ideation. Increasing scores reflect increases in suicidal risk.

subjects with TRD [2] = conditions: human, in vivo, other: intranasal
Procedure: FIGS. 53 and 54 present means for blood pressure over time by treatment group in the maintenance phase.
Transient blood pressure increases peaked for the esketamine group at approximately 40 minutes post dose and returned closer to predose levels by 1.5 hours post dose.

[3] = test system: patients with treatment-resistant depression (TRD); test: CGI-S (Example 7); type: in vivo, human
Procedure: Overall illness severity was assessed on the Clinical Global Impression of Severity (CGI-S) scale (Guy, “ECDEU Assessment Manual for Psychopharmacology—Revised (DHEW Publ No ADM 76-338)”, Rockville, Md.: U.S. Department of Health, Education, and Welfare, Public Health Service, Alcohol, Drug Abuse, and Mental Health Administration, NIMH Psychopharmacology Research Branch, Division of Extramural Research Programs; 1976, pp 218-222). Participants assessed their severity of anxiety on the Generalized Anxiety Disorder 7-item (GADS-7) Scale (See, Tables 157 and 158). See, Spitzer, “A brief measure for assessing generalized anxiety disorder—the GAD-7”, Arch. Intern. Med., 2006, 166(10):1092-1097.

[4] = test system: patients with treatment-resistant depression (TRD); test: Vital signs: blood pressure and heart rate (Example 7); type: in vivo, human
Procedure: (§1) Adverse events were monitored throughout the study. Other safety assessments (i.e., laboratory tests, vital signs, physical examination) were performed at pre-specified time points. Vital signs, the Clinician Administered Dissociative States Scale (CADSS; Bremner, “Measurement of dissociative states with the clinician-administered dissociative states scale (CADSS)”, J. Traumatic Stress, 1998, 11(1):125-136), and the 4-item positive symptom subscale from the Brief Psychiatric Rating Scale (BPRS; Overall, “The Brief Psychiatric Rating Scale. Psychological Reports”, 1962, 10:799-812) were assessed pre-dose, at 40 minutes, and 2 hours post-dose.

[5] = test system: patients with treatment-resistant depression (TRD); test: BPRS positive symptom subscale (Example 7); parameters: species or system human; conditions: in vivo
Procedure: as §1

[6] = Pharmacokinetics assembled from 14 Phase 1 studies (Example 10); conditions: for Terminal t1/2 / AUClast / Cmax / tmax: young adult subjects; for Terminal t1/2: range across studies; for AUClast / Cmax: range of mean values; for tmax: range of median values
Procedure: The data herein was assembled from 14 Phase 1 studies; each Phase 1 study was performed similarly to the study outlined in Example 9 in which the PK of esketamine was assessed.

adult subjects with TRD [7] = conditions: US patients
From the text: Adverse events were reported by the subject (or, when appropriate, by a caregiver, surrogate, or the subject's legally acceptable representative) for the duration of the study. Adverse events were followed by the investigator. TEAEs of special interest were examined separately.
The verbatim terms used in the eCRF by investigators to identify adverse events were coded using the MedDRA. All reported adverse events with onset during the double-blind induction phase (i.e., TEAEs, and adverse events that have worsened since baseline) were included in the analysis. For each adverse event, the percentage of subjects who experience at least 1 occurrence of the given event was summarized by treatment group. Adverse events occurring during the follow-up phase were summarized separately.
TEAEs of special interest were examined separately. AEs of special interest were listed in the SAP. Subjects who died, who discontinued treatment due to an adverse event, or who experienced a severe or a serious adverse event were summarized separately.
An adverse event is any untoward medical occurrence in a clinical study subject administered a medicinal (investigational or non-investigational) product. […]

adult subjects with TRD [8] = test system: adult subjects with TRD
Procedure: Blood pressure and pulse/heart rate measurements were assessed supine with a completely automated device. Manual techniques were used only if an automated device is not available. Blood pressure and pulse/heart rate measurements were preceded by at least 5 minutes of rest in a quiet setting without distractions (e.g., television, cell phones).
Descriptive statistics of temperature, pulse/heart rate, respiratory rate, pulse oximetry, and blood pressure (systolic and diastolic) (supine) values and changes from baseline were summarized at each scheduled time point. The percentage of subjects with values beyond clinically important limits were summarized.

adult subjects with TRD [9] = conditions: double-blind phase
Procedure: The MOAA/S was used to measure treatment-emergent sedation, with correlation to levels of sedation defined by the American Society of Anesthesiologists (ASA) continuum. The MOAA/S scores range from 0=no response to painful stimulus (corresponds to ASA continuum for general anesthesia) to 5=readily responds to name spoken in normal tone (awake; corresponds to ASA continuum for minimal sedation).
On each intranasal dosing day, the MOAA/S was performed every 15 minutes from pre-dose to t=+1.5 hours post-dose. If the score was ≤3 at any time during the 1.5 hours post-dose interval, the MOAA/S was performed every 5 minutes until a score of 4 is reached (at which point a frequency of every 15 minutes can be resumed until t=+1.5 hours post dose). […] For subjects with a score of 4, the assessment was repeated every 15 minutes. […]
The Modified Observer's Assessment of Alertness/Sedation (MOAA/S) was used to measure treatment-emergent sedation with correlation to levels of sedation defined by the American Society of Anesthesiologists (ASA) continuum. The MOAA/S scores ranged from 0 (No response to painful stimulus; corresponds to ASA continuum for general anesthesia) to 5 (Readily responds to name spoken in normal tone [awake]; corresponding to ASA continuum for minimal sedation).

[10] = test system: elderly subjects with TRD; conditions: double-blind phase
Procedure: (§2) The Clinician Administered Dissociative States Scale (CADSS) was measured prior to the start of each dose, at 40 minutes, and 1.5 hours postdose.

[11] = test system: subjects with MDD at imminent risk for suicide; conditions: 84 mg
Procedure: The CADSS was measured prior to the start of each dose, at 40 minutes, 2 hours, and 4 hours postdose.

subjects with TRD [12] = conditions: human, in vivo, other: intranasal; remark: listed apart in the source
Procedure: as §2

CN[C@]1(c2ccccc2Cl)CCCCC1=O [esketamine, (S)-2-(2-chlorophenyl)-2-(methylamino)cyclohexanone]
change in BSS total score vs placebo ([1]; Day 1 4-hours postdose, Day 2 (DB), End Point (DB)): no statistically significant differences
BSS total score change from baseline, Diff. of LS Means (minus Placebo) ([1]; Day 1(DB): 4 H): −2.3
BSS total score change from baseline, Diff. of LS Means (minus Placebo) ([1]; Day 2(DB)): −1.9
BSS total score change from baseline, Diff. of LS Means (minus Placebo) ([1]; End Point(DB)): −1.7
blood pressure returned closer to predose levels by (subjects with TRD [2]): ≤ 1.5 hours post dose
time of peak of transient blood pressure increase post dose (subjects with TRD [2]): approximately 40 minutes
CGI-S change from baseline, Median Change (Range) ([3]; Period 1 (first day to day 8), 28 mg): −1.0 (−2, 1)
CGI-S change from baseline, Median Change (Range) ([3]; Period 1 (first day to day 8), 56 mg): −1.0 (−3, 0)
CGI-S change from baseline, Median Change (Range) ([3]; Period 1 (first day to day 8), 84 mg): −0.5 (−4, 0)
CGI-S at end point, Median (Range) ([3]; Period 1, 28 mg): 4.0 (3, 5)
CGI-S at end point, Median (Range) ([3]; Period 1, 56 mg): 4.0 (1, 5)
CGI-S at end point, Median (Range) ([3]; Period 1, 84 mg): 4.0 (1, 6)
CGI-S change from baseline, Median Change (Range) ([3]; Period 2 (first day to day 8 of period), 28 mg): −1.0 (−1, 0)
CGI-S change from baseline, Median Change (Range) ([3]; Period 2 (first day to day 8 of period), 56 mg): −1.0 (−2, 0)
CGI-S change from baseline, Median Change (Range) ([3]; Period 2 (first day to day 8 of period), 84 mg): −1.0 (−2, 0)
CGI-S at end point, Median (Range) ([3]; Period 2, 28 mg): 4.0 (3, 5)
CGI-S at end point, Median (Range) ([3]; Period 2, 56 mg): 5.0 (4, 6)
CGI-S at end point, Median (Range) ([3]; Period 2, 84 mg): 4.0 (3, 5)
maximum diastolic blood pressure value ([4]; 10 or 40 minutes post-dose): 115 mmHg
maximum systolic blood pressure value ([4]; 10 or 40 minutes post-dose): 199 mmHg
maximum mean change in diastolic blood pressure ([4]; dosing days): 10.3 mmHg
maximum mean change in heart rate ([4]; dosing days): 9.4 bpm
maximum mean change in systolic blood pressure ([4]; dosing days): 19.0 mmHg
elevated blood pressure returned to the normal range by ([4]; in vivo): ≤ 2 hours post-dose
symptoms suggestive of psychosis (BPRS-positive assessment) [5]: No participant manifested symptoms suggestive of psychosis
mean terminal t1/2 ([6]; nasal administration): 7 to 12 h
Terminal t1/2 ([6]; single dose nasal spray 28 mg): 7.25 to 16.5 h
AUClast ([6]; single dose nasal spray 28 mg): 128 to 183 ng·h/mL
Cmax ([6]; single dose nasal spray 28 mg): 49.7 to 70.5 ng/mL
tmax ([6]; single dose nasal spray 28 mg): 0.33 to 0.67 h
Terminal t1/2 ([6]; single dose nasal spray 56 mg): 6.8 to 9.83 h
AUClast ([6]; single dose nasal spray 56 mg): 216 to 317 ng·h/mL
Cmax ([6]; single dose nasal spray 56 mg): 71.8 to 117 ng/mL
tmax ([6]; single dose nasal spray 56 mg): 0.50 to 0.77 h
Terminal t1/2 ([6]; single dose nasal spray 84 mg): 6.6 to 12.0 h
AUClast ([6]; single dose nasal spray 84 mg): 310 to 489 ng·h/mL
Cmax ([6]; single dose nasal spray 84 mg): 95.0 to 164 ng/mL
tmax ([6]; single dose nasal spray 84 mg): 0.53 to 0.83 h
patients who withdrew from nasal spray drug (adult subjects with TRD [7]): 3 n
maximum mean increase in diastolic BP (adult subjects with TRD [8]; across all dosing days): 8.1
time blood pressure returned to normal range (adult subjects with TRD [8]; double-blind phase): 90 min
time of peak of transient blood pressure increase post dose (adult subjects with TRD [8]; double-blind phase): approximately 40 minutes
sedation (MOAA/S) resolved by (adult subjects with TRD [9]): ≤ 1.5 hours postdose
dissociative and perceptual change symptoms (CADSS) resolved by [10]: ≤ 1.5 hours postdose
dissociative and perceptual change symptoms (CADSS) resolved by [11]: ≤ 2 hours post dose
dissociative/perceptual change symptoms (CADSS) resolved by (subjects with TRD [12]): ≤ 1.5 hours post dose
